Species: Rattus norvegicus
Assay: DrugMatrix - Regimen: Daily Repeat
Format: toxicity, organism-based, Sprague-Dawley
Parameters: regimen Daily Repeat, gender Male, age 6-8 weeks
Settings: in vivo, po, route oral GAVAGE, vehicle 100 % WATER; for ABSOLUTE BASOPHIL / ABSOLUTE EOSINOPHIL / ABSOLUTE LYMPHOCYTE / ABSOLUTE MONOCYTE / ABSOLUTE SEGMENTED NEUTROPHIL / BASOPHIL / EOSINOPHIL / ERYTHROCYTE COUNT / HEMATOCRIT / HEMOGLOBIN / LEUKOCYTE COUNT / LYMPHOCYTE / MEAN CORPUSCULAR HEMOGLOBIN / MEAN CORPUSCULAR HEMOGLOBIN CONCENTRATION / MEAN CORPUSCULAR VOLUME / MONOCYTE / NEUTROPHIL / NUCLEATED RED BLOOD CELLS / PLATELET COUNT: tissue Blood; for ALANINE AMINOTRANSFERASE / ALBUMIN / ALKALINE PHOSPHATASE / ASPARTATE AMINOTRANSFERASE / BLOOD UREA NITROGEN / CARBON DIOXIDE / CHLORIDE / CHOLESTEROL / CREATINE PHOSPHOKINASE / CREATININE / GLUCOSE / LACTATE DEHYDROGENASE / LIPASE / PHOSPHORUS / POTASSIUM / SODIUM / TOTAL BILIRUBIN / TOTAL PROTEIN / URIC ACID: tissue Plasma
[1] = 5 mg/kg, 120 h, dose level Low, time 5 day
[2] = 500 mg/kg, 72 h, dose level High, time 3 day
[3] = 500 mg/kg, 120 h, dose level High, time 5 day

COc1cc2nc(N3CCN(C(=O)C4COc5ccccc5O4)CC3)nc(N)c2cc1OC (centres undefined) [DOXAZOSIN]
ABSOLUTE BASOPHIL [1]: 0 CELLS/uL | ABSOLUTE EOSINOPHIL [1]: 0 CELLS/uL | ABSOLUTE LYMPHOCYTE [1]: 9952.67 CELLS/uL | ABSOLUTE MONOCYTE [1]: 136 CELLS/uL | ABSOLUTE SEGMENTED NEUTROPHIL [1]: 844.67 CELLS/uL | BASOPHIL [1]: 0% | EOSINOPHIL [1]: 0% | ERYTHROCYTE COUNT [1]: 5.87 x10E6/uL | HEMATOCRIT [1]: 36.6% | HEMOGLOBIN [1]: 13.9 G/DL | LEUKOCYTE COUNT [1]: 10.93 x10E3/uL | LYMPHOCYTE [1]: 91% | MEAN CORPUSCULAR HEMOGLOBIN [1]: 23.73 pg | MEAN CORPUSCULAR HEMOGLOBIN CONCENTRATION [1]: 37.97 G/DL | MEAN CORPUSCULAR VOLUME [1]: 62.47 fL | MONOCYTE [1]: 1.33% | NEUTROPHIL [1]: 7.67% | NUCLEATED RED BLOOD CELLS [1]: 0 /100WBC | PLATELET COUNT [1]: 1169.67 x10E3/uL | ALANINE AMINOTRANSFERASE [1]: 54.67 u/L | ALBUMIN [1]: 4.07 G/DL | ALKALINE PHOSPHATASE [1]: 345.67 u/L | ASPARTATE AMINOTRANSFERASE [1]: 85.33 u/L | BLOOD UREA NITROGEN [1]: 17.67 mg/dL | CARBON DIOXIDE [1]: 33 mmol/L | CHLORIDE [1]: 101.67 MEQ/L | CHOLESTEROL [1]: 70.33 mg/dL | CREATINE PHOSPHOKINASE [1]: 283.33 u/L | CREATININE [1]: 0.19 mg/dL | GLUCOSE [1]: 123 mg/dL | LACTATE DEHYDROGENASE [1]: 105 u/L | LIPASE [1]: 11.33 u/L | PHOSPHORUS [1]: 11.23 mg/dL | POTASSIUM [1]: 6.38 MEQ/L | SODIUM [1]: 145.93 MEQ/L | TOTAL BILIRUBIN [1]: 0.17 mg/dL | TOTAL PROTEIN [1]: 6.07 G/DL | URIC ACID [1]: 1.13 mg/dL | ABSOLUTE BASOPHIL [2]: 0 CELLS/uL | ABSOLUTE EOSINOPHIL [2]: 73 CELLS/uL | ABSOLUTE LYMPHOCYTE [2]: 6631.33 CELLS/uL | ABSOLUTE MONOCYTE [2]: 53.67 CELLS/uL | ABSOLUTE SEGMENTED NEUTROPHIL [2]: 808.67 CELLS/uL | BASOPHIL [2]: 0% | EOSINOPHIL [2]: 1.33% | ERYTHROCYTE COUNT [2]: 5.62 x10E6/uL | HEMATOCRIT [2]: 34.87% | HEMOGLOBIN [2]: 13.47 G/DL | LEUKOCYTE COUNT [2]: 7.57 x10E3/uL | LYMPHOCYTE [2]: 85.33% | MEAN CORPUSCULAR HEMOGLOBIN [2]: 23.97 pg | MEAN CORPUSCULAR HEMOGLOBIN CONCENTRATION [2]: 38.63 G/DL | MEAN CORPUSCULAR VOLUME [2]: 62.07 fL | MONOCYTE [2]: 1% | NEUTROPHIL [2]: 12.33% | NUCLEATED RED BLOOD CELLS [2]: 0 /100WBC | PLATELET COUNT [2]: 1290.67 x10E3/uL | ALANINE AMINOTRANSFERASE [2]: 66 u/L | ALBUMIN [2]: 4.03 G/DL | ALKALINE PHOSPHATASE [2]: 327 u/L | ASPARTATE AMINOTRANSFERASE [2]: 79 u/L | BLOOD UREA NITROGEN [2]: 14.33 mg/dL | CARBON DIOXIDE [2]: 29.67 mmol/L | CHLORIDE [2]: 100.33 MEQ/L | CHOLESTEROL [2]: 97.33 mg/dL | CREATINE PHOSPHOKINASE [2]: 248 u/L | CREATININE [2]: 0.21 mg/dL | GLUCOSE [2]: 140.67 mg/dL | LACTATE DEHYDROGENASE [2]: 232.33 u/L | LIPASE [2]: 10.33 u/L | PHOSPHORUS [2]: 10.53 mg/dL | POTASSIUM [2]: 5.08 MEQ/L | SODIUM [2]: 143.17 MEQ/L | TOTAL BILIRUBIN [2]: 0.37 mg/dL | TOTAL PROTEIN [2]: 6.17 G/DL | URIC ACID [2]: 0.67 mg/dL | ABSOLUTE BASOPHIL [3]: 0 CELLS/uL | ABSOLUTE EOSINOPHIL [3]: 121 CELLS/uL | ABSOLUTE LYMPHOCYTE [3]: 10491.67 CELLS/uL | ABSOLUTE MONOCYTE [3]: 80.67 CELLS/uL | ABSOLUTE SEGMENTED NEUTROPHIL [3]: 940 CELLS/uL | BASOPHIL [3]: 0% | EOSINOPHIL [3]: 1% | ERYTHROCYTE COUNT [3]: 5.32 x10E6/uL | HEMATOCRIT [3]: 33.53% | HEMOGLOBIN [3]: 13.03 G/DL | LEUKOCYTE COUNT [3]: 11.63 x10E3/uL | LYMPHOCYTE [3]: 90.33% | MEAN CORPUSCULAR HEMOGLOBIN [3]: 24.5 pg | MEAN CORPUSCULAR HEMOGLOBIN CONCENTRATION [3]: 38.93 G/DL | MEAN CORPUSCULAR VOLUME [3]: 62.93 fL | MONOCYTE [3]: 0.67% | NEUTROPHIL [3]: 8% | NUCLEATED RED BLOOD CELLS [3]: 0.33 /100WBC | PLATELET COUNT [3]: 350.67 x10E3/uL | ALANINE AMINOTRANSFERASE [3]: 64 u/L | ALBUMIN [3]: 3.8 G/DL | ALKALINE PHOSPHATASE [3]: 343 u/L | ASPARTATE AMINOTRANSFERASE [3]: 99.33 u/L | BLOOD UREA NITROGEN [3]: 18.33 mg/dL | CARBON DIOXIDE [3]: 30.67 mmol/L | CHLORIDE [3]: 102 MEQ/L | CHOLESTEROL [3]: 54.67 mg/dL | CREATINE PHOSPHOKINASE [3]: 485.67 u/L | CREATININE [3]: 0.29 mg/dL | GLUCOSE [3]: 141.33 mg/dL | LACTATE DEHYDROGENASE [3]: 106.67 u/L | LIPASE [3]: 9.67 u/L | PHOSPHORUS [3]: 10.73 mg/dL | POTASSIUM [3]: 5.43 MEQ/L | SODIUM [3]: 145.97 MEQ/L | TOTAL BILIRUBIN [3]: 0.2 mg/dL | TOTAL PROTEIN [3]: 5.37 G/DL | URIC ACID [3]: 0.83 mg/dL

— ChEMBL document CHEMBL3885881, “DrugMatrix”
